ChEMBL document CHEMBL1152979, “Inhibition of the insulin-like growth factor-1 receptor (IGF1R) tyrosine kinase as a novel cancer therapy approach” (J Med Chem, 2009)
Each block holds one compound with its values, some of them ahead of it.

How the values were obtained:
Insulin receptor [1] = biological target: T1, Insulin receptor (Homo sapiens, UniProt P06213); assay: Inhibition of IRK
[2] = biological target: T2, Insulin-like growth factor 1 receptor (Homo sapiens, UniProt P08069); assay: Displacement of fluorescent ATP competitive ligand from IGF1R
[3] = biological target: T2, Insulin-like growth factor 1 receptor
Description: Inhibition of IGF1R by cell based assay

[4] = Selectivity for EGFR over HER2
[5] = Selectivity for insulin receptor over IGF1R
[6] = biological target: T2, Insulin-like growth factor 1 receptor; remark: listed apart in the source
[7] = Cytotoxicity against human RD1 cells; assay type: functional, cell-based
[8] = Cytotoxicity against human MDA PCa 2b cells; assay type: functional, cell-based
[9] = biological target: Epidermal growth factor receptor (Homo sapiens, UniProt P00533); assay: Inhibition of HER1
Bcr/Abl fusion protein = Bcr/Abl fusion protein (Homo sapiens, UniProt P00519); assay: Inhibition of BCR-ABL p210; assay type: protein assay
[10] = biological target: Mast/stem cell growth factor receptor Kit (Homo sapiens, UniProt P10721)
COLO 205 = assay: Cytotoxicity against human COLO205 cells; assay type: functional, cell-based
MCF7 = assay: Cytotoxicity against human MCF7 cells; assay type: functional, cell-based
Focal adhesion kinase 1 = Focal adhesion kinase 1 (Homo sapiens, UniProt Q05397)
[11] = biological target: Tyrosine-protein kinase Lck (Homo sapiens, UniProt P06239)
[12] = biological target: Receptor tyrosine-protein kinase erbB-2 (Homo sapiens, UniProt P04626); assay: Inhibition of HER2
[13] = Inhibition of PDGFR
[14] = biological target: Vascular endothelial growth factor receptor 2 (Homo sapiens, UniProt P35968); assay: Inhibition of VEGFR2
[15] = biological target: T2, Insulin-like growth factor 1 receptor; remark: listed apart in the source
Description: Inhibition of IGF1R by cell based assay

Insulin receptor [16] = biological target: T1, Insulin receptor
Description: Inhibition of insulin receptor by cell based assay

[17] = biological target: T2, Insulin-like growth factor 1 receptor; assay: Inhibition of GST-tagged human IGF1R expressed in baculovirus-infected Sf21 cells by scintillation proximity assay
[18] = biological target: T2, Insulin-like growth factor 1 receptor; assay: Inhibition of IGF1R in IGF1-stimulated human MCF7 cells by Western blot analysis; assay type: cell-based
[19] = biological target: T2, Insulin-like growth factor 1 receptor; assay: Inhibition of IGF1R in human MCF7 cells by Western blot analysis; assay type: cell-based
[20] = biological target: T2, Insulin-like growth factor 1 receptor; assay: Inhibition of IGF1R autophosphorylation in human MCF7 cells by Western blot analysis; assay type: cell-based
[21] = biological target: T2, Insulin-like growth factor 1 receptor; assay: Inhibition for IGF1R-induced S6 ribosomal protein phosphorylation in growth factor-stimulated NHDF
[22] = biological target: T2, Insulin-like growth factor 1 receptor; assay: Inhibition of IGF1R in growth factor-stimulated NHDF
[23] = Selectivity for HER2 over EGFR

T1 sequence (P06213 28-758 limits assumed): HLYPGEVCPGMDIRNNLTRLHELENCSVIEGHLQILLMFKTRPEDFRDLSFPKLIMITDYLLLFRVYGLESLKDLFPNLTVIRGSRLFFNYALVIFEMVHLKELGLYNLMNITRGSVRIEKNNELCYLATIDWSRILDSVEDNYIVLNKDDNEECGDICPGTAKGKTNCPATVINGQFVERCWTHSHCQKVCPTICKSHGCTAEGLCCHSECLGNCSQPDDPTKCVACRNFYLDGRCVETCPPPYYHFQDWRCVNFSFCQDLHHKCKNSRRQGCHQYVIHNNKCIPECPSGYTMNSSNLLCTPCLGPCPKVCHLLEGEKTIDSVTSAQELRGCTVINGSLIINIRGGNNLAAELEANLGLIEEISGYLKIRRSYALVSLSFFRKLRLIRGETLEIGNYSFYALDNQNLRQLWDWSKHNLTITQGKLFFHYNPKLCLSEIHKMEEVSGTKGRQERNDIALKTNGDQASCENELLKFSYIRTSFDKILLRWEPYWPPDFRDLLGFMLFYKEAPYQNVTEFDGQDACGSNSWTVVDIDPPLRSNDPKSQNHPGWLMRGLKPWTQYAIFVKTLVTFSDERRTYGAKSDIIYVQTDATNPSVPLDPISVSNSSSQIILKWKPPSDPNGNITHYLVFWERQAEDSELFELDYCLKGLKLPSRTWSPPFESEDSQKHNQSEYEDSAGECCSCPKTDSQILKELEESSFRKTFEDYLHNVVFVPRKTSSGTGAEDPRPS
T1 sequence (P06213 763-1382 limits assumed): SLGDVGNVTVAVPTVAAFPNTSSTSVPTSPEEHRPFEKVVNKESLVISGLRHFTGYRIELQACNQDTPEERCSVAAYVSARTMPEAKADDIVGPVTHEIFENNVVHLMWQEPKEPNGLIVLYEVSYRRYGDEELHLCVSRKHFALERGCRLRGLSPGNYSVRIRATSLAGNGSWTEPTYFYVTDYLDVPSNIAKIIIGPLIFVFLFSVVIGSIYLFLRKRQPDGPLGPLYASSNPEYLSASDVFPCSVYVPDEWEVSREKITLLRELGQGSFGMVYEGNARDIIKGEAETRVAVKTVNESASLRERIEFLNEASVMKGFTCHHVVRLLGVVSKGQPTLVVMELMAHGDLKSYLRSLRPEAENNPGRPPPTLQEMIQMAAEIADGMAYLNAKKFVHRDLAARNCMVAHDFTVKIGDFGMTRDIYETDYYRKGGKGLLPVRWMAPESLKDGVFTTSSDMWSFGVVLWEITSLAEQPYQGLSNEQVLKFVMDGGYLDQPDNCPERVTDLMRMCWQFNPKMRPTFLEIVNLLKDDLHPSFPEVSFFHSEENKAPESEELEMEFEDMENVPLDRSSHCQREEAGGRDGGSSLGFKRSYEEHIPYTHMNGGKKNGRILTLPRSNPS
T2 sequence (P08069 31-736 limits assumed): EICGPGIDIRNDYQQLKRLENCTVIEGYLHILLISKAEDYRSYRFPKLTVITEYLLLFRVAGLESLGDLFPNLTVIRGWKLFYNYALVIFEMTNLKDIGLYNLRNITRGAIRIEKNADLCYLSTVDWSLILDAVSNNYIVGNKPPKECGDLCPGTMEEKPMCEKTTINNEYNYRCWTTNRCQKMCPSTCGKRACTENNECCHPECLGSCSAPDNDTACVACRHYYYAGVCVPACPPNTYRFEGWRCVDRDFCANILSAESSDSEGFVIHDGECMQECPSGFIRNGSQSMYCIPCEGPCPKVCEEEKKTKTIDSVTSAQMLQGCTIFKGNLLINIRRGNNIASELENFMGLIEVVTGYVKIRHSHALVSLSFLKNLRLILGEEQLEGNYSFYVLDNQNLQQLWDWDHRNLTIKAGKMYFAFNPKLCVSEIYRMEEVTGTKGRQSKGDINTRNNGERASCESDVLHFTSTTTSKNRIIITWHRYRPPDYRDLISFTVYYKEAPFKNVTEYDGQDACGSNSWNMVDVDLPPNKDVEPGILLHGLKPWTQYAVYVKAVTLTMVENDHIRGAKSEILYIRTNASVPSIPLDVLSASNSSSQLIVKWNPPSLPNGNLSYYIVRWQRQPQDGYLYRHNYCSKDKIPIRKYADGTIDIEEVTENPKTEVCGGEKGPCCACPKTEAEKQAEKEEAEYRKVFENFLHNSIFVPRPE
T2 sequence (P08069 741-1367 limits assumed): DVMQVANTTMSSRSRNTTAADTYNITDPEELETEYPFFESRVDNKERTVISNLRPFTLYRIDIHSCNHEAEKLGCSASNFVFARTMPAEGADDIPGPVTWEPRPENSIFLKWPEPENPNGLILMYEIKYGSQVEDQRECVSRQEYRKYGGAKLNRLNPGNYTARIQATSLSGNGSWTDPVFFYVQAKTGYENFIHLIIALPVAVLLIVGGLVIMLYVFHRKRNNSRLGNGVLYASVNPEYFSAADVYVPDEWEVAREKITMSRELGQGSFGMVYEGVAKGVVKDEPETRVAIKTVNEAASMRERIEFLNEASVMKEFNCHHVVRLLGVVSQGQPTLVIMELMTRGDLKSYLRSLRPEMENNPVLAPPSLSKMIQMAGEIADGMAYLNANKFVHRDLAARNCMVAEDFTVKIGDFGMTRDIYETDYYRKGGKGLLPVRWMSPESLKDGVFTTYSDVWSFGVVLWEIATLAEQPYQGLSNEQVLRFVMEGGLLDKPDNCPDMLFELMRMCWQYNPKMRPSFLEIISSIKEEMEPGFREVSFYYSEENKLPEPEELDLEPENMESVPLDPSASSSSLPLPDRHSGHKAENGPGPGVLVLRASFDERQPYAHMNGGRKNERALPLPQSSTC
Sequence of Bcr/Abl fusion protein (P00519 whole entry, the tested form may be a part): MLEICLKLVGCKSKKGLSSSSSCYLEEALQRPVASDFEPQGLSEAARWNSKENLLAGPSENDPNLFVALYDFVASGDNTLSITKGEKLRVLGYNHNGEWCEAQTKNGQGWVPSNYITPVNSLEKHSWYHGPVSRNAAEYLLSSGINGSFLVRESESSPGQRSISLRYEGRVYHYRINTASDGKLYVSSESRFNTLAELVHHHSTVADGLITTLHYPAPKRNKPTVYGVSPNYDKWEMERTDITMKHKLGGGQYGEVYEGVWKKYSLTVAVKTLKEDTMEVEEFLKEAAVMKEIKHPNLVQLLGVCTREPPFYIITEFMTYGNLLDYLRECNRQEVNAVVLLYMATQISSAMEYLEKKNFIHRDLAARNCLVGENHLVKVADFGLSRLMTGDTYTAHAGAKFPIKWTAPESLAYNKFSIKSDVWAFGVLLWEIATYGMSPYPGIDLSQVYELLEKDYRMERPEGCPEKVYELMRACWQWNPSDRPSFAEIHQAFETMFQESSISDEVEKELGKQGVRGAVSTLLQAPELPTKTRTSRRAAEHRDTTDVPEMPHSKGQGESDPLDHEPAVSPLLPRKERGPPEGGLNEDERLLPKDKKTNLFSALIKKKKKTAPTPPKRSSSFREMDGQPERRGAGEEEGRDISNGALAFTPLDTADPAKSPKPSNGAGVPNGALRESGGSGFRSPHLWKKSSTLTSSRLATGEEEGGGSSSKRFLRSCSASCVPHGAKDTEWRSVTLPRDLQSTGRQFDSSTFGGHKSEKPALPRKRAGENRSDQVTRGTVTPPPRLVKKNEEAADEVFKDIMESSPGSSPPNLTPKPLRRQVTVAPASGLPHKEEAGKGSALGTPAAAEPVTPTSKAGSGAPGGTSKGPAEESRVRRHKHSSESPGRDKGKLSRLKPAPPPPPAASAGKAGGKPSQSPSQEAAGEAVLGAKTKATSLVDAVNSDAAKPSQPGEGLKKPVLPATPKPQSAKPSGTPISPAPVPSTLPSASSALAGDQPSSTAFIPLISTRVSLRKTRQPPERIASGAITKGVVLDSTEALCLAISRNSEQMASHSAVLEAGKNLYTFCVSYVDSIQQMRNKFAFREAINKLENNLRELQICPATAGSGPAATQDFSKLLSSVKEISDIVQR
Sequence of Bcr/Abl fusion protein (P11274 whole entry, further chain, the tested form may be a part): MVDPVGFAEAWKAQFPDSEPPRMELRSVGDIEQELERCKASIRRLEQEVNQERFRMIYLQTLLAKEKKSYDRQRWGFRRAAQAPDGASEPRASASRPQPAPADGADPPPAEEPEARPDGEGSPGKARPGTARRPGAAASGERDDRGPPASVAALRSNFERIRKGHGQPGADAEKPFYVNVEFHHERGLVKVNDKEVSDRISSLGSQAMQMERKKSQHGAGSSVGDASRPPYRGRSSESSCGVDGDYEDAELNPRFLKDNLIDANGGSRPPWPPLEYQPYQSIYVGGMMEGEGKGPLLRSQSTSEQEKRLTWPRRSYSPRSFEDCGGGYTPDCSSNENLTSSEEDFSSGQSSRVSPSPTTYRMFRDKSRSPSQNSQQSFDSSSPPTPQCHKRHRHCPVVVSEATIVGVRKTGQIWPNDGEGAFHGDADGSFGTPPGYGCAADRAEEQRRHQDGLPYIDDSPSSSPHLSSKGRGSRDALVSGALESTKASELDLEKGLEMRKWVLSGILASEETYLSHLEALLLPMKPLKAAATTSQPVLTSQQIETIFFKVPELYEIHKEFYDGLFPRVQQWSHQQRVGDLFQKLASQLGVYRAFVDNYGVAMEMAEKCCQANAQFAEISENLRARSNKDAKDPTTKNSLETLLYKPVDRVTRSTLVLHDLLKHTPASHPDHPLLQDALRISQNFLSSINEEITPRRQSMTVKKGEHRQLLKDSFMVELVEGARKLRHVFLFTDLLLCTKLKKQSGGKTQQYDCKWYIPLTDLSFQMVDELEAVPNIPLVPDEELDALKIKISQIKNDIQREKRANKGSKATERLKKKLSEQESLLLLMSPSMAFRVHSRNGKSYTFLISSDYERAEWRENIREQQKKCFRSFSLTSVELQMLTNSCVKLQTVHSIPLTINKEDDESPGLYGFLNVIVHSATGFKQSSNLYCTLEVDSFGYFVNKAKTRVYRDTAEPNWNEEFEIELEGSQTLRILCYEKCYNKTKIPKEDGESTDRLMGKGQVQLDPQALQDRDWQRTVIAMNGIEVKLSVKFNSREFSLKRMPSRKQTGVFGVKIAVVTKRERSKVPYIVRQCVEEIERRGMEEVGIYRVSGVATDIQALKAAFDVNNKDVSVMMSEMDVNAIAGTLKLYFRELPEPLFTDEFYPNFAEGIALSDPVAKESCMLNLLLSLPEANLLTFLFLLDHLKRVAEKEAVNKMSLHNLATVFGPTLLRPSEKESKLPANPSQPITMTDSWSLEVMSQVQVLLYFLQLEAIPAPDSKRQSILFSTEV

Structure (SMILES): CCOC(=O)c1c(C=O)[nH]c(C(=O)OC(C)(C)C)c1CC
- Activity (Insulin receptor [1]): 2 µM
- Activity [2]: 0.49 µM
- Activity [3]: 5.3 µM

Structure (SMILES): Nc1nccn2cnc(-c3ccc4ccc(-c5ccccc5)nc4c3C3CC(N4CC4)C3)c12 (configuration not stated)
- Selectivity ratio [5]: 5
- IC50 [6]: 20 nM

Structure (SMILES): Cc1cc(N2CCOCC2)cc2[nH]c(-c3c(NC[C@@H](O)c4cccc(Cl)c4)cc[nH]c3=O)nc12
- IC50 [7]: 202 nM
- IC50 [8]: 194 nM

Structure (SMILES): Cc1cc(N2CCN(CCC#N)CC2)cc2nc(-c3c(NC[C@@H](O)c4ccccc4Cl)cc[nH]c3=O)[nH]c12
- IC50 [7]: 146 nM
- IC50 [8]: 188 nM
- IC50 (COLO 205): 120 nM
- IC50 (MCF7): 234 nM
- IC50 (Focal adhesion kinase 1): 94 nM
- IC50 [11]: > 1500 nM

Structure (SMILES): Nc1ncnc2c1c(-c1cccc(OCc3ccccc3)c1)cn2[C@H]1C[C@H](N2CCCC2)C1
- IC50 [12]: > 10000 nM
- IC50 [13]: > 10000 nM
- IC50 [14]: > 10000 nM
- IC50 (Bcr/Abl fusion protein): > 10000 nM
- IC50 [15]: 170 nM
- IC50 (Insulin receptor [16]): 2800 nM
- IC50 [10]: > 5000 nM

Structure (SMILES): CN1CCN(c2ccc(C(=O)Nc3n[nH]c4c3CN(S(=O)(=O)c3cc(F)cc(F)c3)CC4)cc2)CC1
- IC50 [21]: 3050 nM
- IC50 [22]: 340 nM

Structure (SMILES): CCOC(=O)c1[nH]c(C=O)c(C(=O)OCC)c1C
- Activity (Insulin receptor [1]): 12 µM
- Activity [2]: 2.7 µM
- Activity [3]: 15 µM

Structure (SMILES): CC(C)(C)c1cc(/C=C(\C#N)C(N)=S)cc(C(C)(C)C)c1O
- Selectivity ratio [23]: 1000

Further lines, results first:

- Selectivity ratio [4]: 100
Structure (SMILES): N#C/C(=C\c1ccc(O)c(O)c1)C(=O)NCc1ccccc1

- IC50 [9]: > 10000 nM
- IC50 (Bcr/Abl fusion protein): > 10000 nM
- IC50 [10]: > 5000 nM
Structure (SMILES): Nc1ncnc2c1c(-c1cccc(OCc3ccccc3)c1)cn2[C@H]1C[C@@H](CN2CCC2)C1 [AEW-541]

- IC50 [6]: 830 nM
Structure (SMILES): Cc1cc(N2CCOCC2)cc2[nH]c(-c3c(NC[C@H](O)c4ccccc4Cl)cc[nH]c3=O)nc12

- IC50 [17]: 90 nM
- IC50 [18]: 300 nM
Structure (SMILES): CN1CCN(c2ccc(C(=O)Nc3n[nH]c4c3CN(S(=O)(=O)c3cc(F)cc(F)c3)C4(C)C)cc2NC(=O)c2cc[nH]c2)CC1

- IC50 [6]: 61 nM
Structure (SMILES): N#C/C(=C\c1ccc(O)c(O)c1)C(=O)c1ccc(O)c(O)c1

- IC50 [19]: 80 nM
Structure (SMILES): CN1CCN(c2ccc(C(=O)Nc3n[nH]c4c3CN(S(=O)(=O)c3cc(F)cc(F)c3)CC4)c(NC(=O)c3ccc[nH]3)c2)CC1

- IC50 [20]: < 1000 nM
Structure (SMILES): COc1ccc(Cl)cc1NC(=O)Nc1cc(C)nc2ccccc12

- IC50 [6]: 14000 nM
Structure (SMILES): O=C(O[C@@H]1Cc2ccccc2O[C@@H]1c1cc(O)c(O)c(O)c1)c1cc(O)c(O)c(O)c1
